Experimental data: ChEMBL document CHEMBL1141827, “A glycosyl analogue of diacylglycerol and other antiinflammatory constituents from Inula viscosa” (1999)

Tests used:
Assay type in all cases: functional
Mus musculus [1] = test: Antiinflammatory activity against Swiss mouse assessed as inhibition of TPA-induced edema at 0.5 mg/ear applied simultaneously with TPA measured after 4 hrs
Mus musculus [2] = test: Antiinflammatory activity against Swiss mouse assessed as inhibition of arachidonic acid-induced edema at 0.5 mg/ear applied 30 mins before arachidonic acid challenge measured after 1 hr
Mus musculus [3] = test: Antiinflammatory activity against Swiss mouse chronic dermatitis model assessed as inhibition of TPA-induced edema at 0.5 mg/ear applied twice daily for 4 days measured after 6 hrs
Mus musculus [4] = organism: Mus musculus; test: Antiinflammatory activity against Swiss mouse chronic dermatitis model assessed as inhibition of TPA-induced tissue myeloperoxidase activity at 0.5 mg/ear applied twice daily for 4 days measured after 6 hrs
Mus musculus [5] = test: Antiinflammatory activity against Swiss mouse assessed as inhibition of carrageenan-induced paw volume at 100 mg/kg, po administered 1 hr prior to carrageenan challenge measured after 1 hr
Mus musculus [6] = test: Antiinflammatory activity against Swiss mouse assessed as inhibition of carrageenan-induced paw volume at 100 mg/kg, po administered 1 hr prior to carrageenan challenge measured after 3 hrs
Mus musculus [7] = test: Antiinflammatory activity against Swiss mouse assessed as inhibition of carrageenan-induced paw volume at 100 mg/kg, po administered 1 hr prior to carrageenan challenge measured after 5 hrs

Row | SMILES | inhibition (INH) (Mus musculus [1]) [%] | inhibition (INH) (Mus musculus [2]) [%] | inhibition (INH) (Mus musculus [3]) [%] | inhibition (INH) (Mus musculus [4]) [%] | inhibition in vivo at 100 mg/kg (Mus musculus [5]) [%] | inhibition in vivo at 100 mg/kg (Mus musculus [6]) [%] | inhibition in vivo at 100 mg/kg (Mus musculus [7]) [%]
1 | COc1cc(O)c2c(c1)O[C@H](c1ccc(O)cc1)[C@@H](O)C2=O | 78 | 3 |  |  |  |  | 
2 | COc1cc(O)c2c(c1)O[C@H](c1ccc(O)c(O)c1)[C@@H](OC(C)=O)C2=O | 83 | -1 |  |  |  |  | 
3 | C[C@@H]1C[C@H]2[C@@H]3CCC4=CC(=O)C=C[C@]4(C)[C@@]3(F)[C@@H](O)C[C@]2(C)[C@@]1(O)C(=O)CO [DEXAMETHASONE] |  |  | 92 | 92 |  |  | 
4 | C=C(C(=O)O)[C@@H]1CC[C@@]2(C)CCC[C@@](C)(O)[C@@H]2C1 [ILICIC ACID] | 72 | 18 | 78 | 82 | 5 | 32 | 30
5 | COc1ccc2c(c1)c(CC(=O)O)c(C)n2C(=O)c1ccc(Cl)cc1 [INDOMETHACIN] | 91 |  |  |  |  |  | 
6 | CC/C=C\C/C=C\C/C=C\CCCCCCCC(=O)OC(COC(=O)CCCCCCCCCCCCCCC)CO[C@H]1O[C@@H](CO[C@H]2O[C@H](CO)[C@H](O)[C@H](O)[C@H]2O)[C@@H](O)[C@@H](O)[C@@H]1O (some centres undefined) [INUGALACTOLIPID A] | 48 | 5 | 97 | 84 | -16 | 10 | 5
7 | C=C1C(=O)O[C@H]2CC(=C)[C@H]3CC[C@@](C)(O)[C@@H]3C[C@H]12 [INUVISCOLIDE] | 90 | -16 |  |  |  |  | 
8 | O=C1CCN(c2ccccc2)N1 [PHENIDONE] |  | 51 |  |  |  |  | 
9 | CCCCC1C(=O)N(c2ccccc2)N(c2ccccc2)C1=O [PHENYLBUTAZONE] |  |  |  |  | 54 | 58 | 43
10 | COc1cc(O)c2c(=O)c(O)c(-c3ccc(O)cc3)oc2c1 [RHAMNOCITRIN] | 78 | 6 |  |  |  |  | 
